Measurements taken from paper PMC11047712, “Synergistic Antioxidant and Anti-Inflammatory Effects of Phenolic Acid-Conjugated Glutamine–Histidine–Glycine–Valine (QHGV) Peptides Derived from Oysters (Crassostrea talienwhanensis)” (Antioxidants, 2024).
Each block holds one compound with its values, some of them ahead of it.

How the values were obtained:
[1] = system: cyclooxygenase-2 (Cox-2) mRNA; experiment: Cox-2 mRNA expression in LPS-induced RAW 264.7 cells (qRT-PCR); format: cell-based, murine; settings: peptide 500 μM pretreated 2 h, LPS 0.1 μg/mL 24 h, normalized to Gapdh, n = 3
Protocol: (§2) The peptide and control groups were pretreated with 500 and 0 μM of the peptide solution, respectively, for 2 h, followed by stimulation with 0.1 μg/mL of LPS for 24 h. Total cellular RNA was isolated using the RNeasy Mini Kit (Qiagen, Santa Clara, CA, USA). Total RNA was used to synthesize complementary DNA (cDNA) using the PrimeScript™ 1st strand cDNA synthesis kit (TaKaRa, Kusatsu, Japan). […] The mRNA levels of iNos, Cox-2, and Col1a1 were normalized to that of Gapdh, which is a housekeeping gene. The mRNA levels were quantified using the 2^-ddCt method based on the Ct values.

phospho-p38 = experiment: LPS-induced phosphorylation of p38 in RAW 264.7 cells (Western blot); format: cell-based, murine; settings: peptide 500 µM 2 h, LPS 0.1 μg/mL 15 min, densitometry relative to p38, n = 3
Protocol: HaCaT (3.0 × 10^5 cells/well) and RAW 264.7 (1.5 × 10^5 cells/well) cells were seeded in the wells of a six-well plate. HaCaT and RAW 264.7 cells were treated with the peptide solutions (500 µM) for 24 and 2 h, respectively, and then stimulated with LPS (0.1 μg/mL) for 15 min. The cells were then washed with cold PBS and lysed in a cold lysis buffer. Cell debris was removed after centrifugation at 12,000× g for 30 min at 4 °C. Protein concentration was determined using the bicinchoninic acid (BCA) protein assay. The four-times-concentrated protein-denaturing buffer (1.25 M Tris-HCl (pH 6.8), glycerol, SDS, 2-mercaptoethanol, and 0.4% bromophenol blue) was added to the cell lysate and the mixture was boiled at 100 °C for 5 min. Proteins were separated by electrophoresis on 10% (for MAPKs) or 12% (for collagen) sodium dodecyl sulfate-polyacrylamide gel and electroblotted onto polyvinylidene fluoride membranes. The membranes were blocked with 5% skimmed milk in Tris-buffered saline–Tween (TBS-T) at room temperature for 1 h. […] The band intensities of phospho-ERK, phospho-JNK, phospho-p38, and collagen I proteins were quantified by densitometric analysis using the ImageJ software 1.8.0 (National Institutes of Health, NIH, Bethesda, MD, USA). […]

phospho-ERK 1/2 = experiment: LPS-induced phosphorylation of ERK in RAW 264.7 cells (Western blot); format: cell-based, murine; settings: peptide 500 µM 2 h, LPS 0.1 μg/mL 15 min, densitometry relative to ERK, n = 3
Protocol: (§1) HaCaT (3.0 × 10^5 cells/well) and RAW 264.7 (1.5 × 10^5 cells/well) cells were seeded in the wells of a six-well plate. HaCaT and RAW 264.7 cells were treated with the peptide solutions (500 µM) for 24 and 2 h, respectively, and then stimulated with LPS (0.1 μg/mL) for 15 min. The cells were then washed with cold PBS and lysed in a cold lysis buffer. Cell debris was removed after centrifugation at 12,000× g for 30 min at 4 °C. Protein concentration was determined using the bicinchoninic acid (BCA) protein assay. The four-times-concentrated protein-denaturing buffer (1.25 M Tris-HCl (pH 6.8), glycerol, SDS, 2-mercaptoethanol, and 0.4% bromophenol blue) was added to the cell lysate and the mixture was boiled at 100 °C for 5 min. Proteins were separated by electrophoresis on 10% (for MAPKs) or 12% (for collagen) sodium dodecyl sulfate-polyacrylamide gel and electroblotted onto polyvinylidene fluoride membranes. The membranes were blocked with 5% skimmed milk in Tris-buffered saline–Tween (TBS-T) at room temperature for 1 h. After washing, the membranes were incubated overnight in respective primary antibody solutions (anti-phospho-ERK, anti-phospho-JNK, anti-phospho-p38, anti-collagen I, anti-GAPDH or anti-β-actin antibodies) at 4 °C. The membranes were washed with TBS-T and incubated with a horseradish peroxidase-conjugated secondary antibody solution for 1 h at room temperature. They were washed again with TBS-T and PBS and developed using an enhanced chemiluminescence reagent. Images of the immunoblots were scanned with an iBright™ CL1500 Imaging System (Thermo Fisher Scientific, Waltham, MA, USA). The band intensities of phospho-ERK, phospho-JNK, phospho-p38, and collagen I proteins were quantified by densitometric analysis using the ImageJ software 1.8.0 (National Institutes of Health, NIH, Bethesda, MD, USA). To normalize for protein loading, antibodies against β-actin and GAPDH were used, and phospho-ERK 1/2, phospho-JNK, and phospho-p38 phosphorylation levels were expressed relative to those of ERK, p38, and JNK, respectively. The levels of collagen I were normalized to those of GAPDH. Images of raw Western blots are shown in the Supplementary Data.

[2] = system: inducible nitric oxide synthase (iNos) mRNA; experiment: iNos mRNA expression in LPS-induced RAW 264.7 cells (qRT-PCR); format: cell-based, murine; settings: peptide 500 μM pretreated 2 h, LPS 0.1 μg/mL 24 h, normalized to Gapdh, n = 3
Protocol: as §2

phospho-JNK = experiment: LPS-induced phosphorylation of JNK in RAW 264.7 cells (Western blot); format: cell-based, murine; settings: peptide 500 µM 2 h, LPS 0.1 μg/mL 15 min, densitometry relative to JNK, n = 3
Protocol: as §1, with “HaCaT and RAW 264.7 cells were treated with the peptide solutions (500 µM) for 24 and 2 h, respectively, and then stimulated with LPS (0.1 μg/mL) for 15 min.” left out, “The four-times-concentrated protein-denaturing buffer (1.25 M Tris-HCl (pH 6.8), glycerol, SDS, 2-mercaptoethanol, and 0.4% bromophenol blue) was added to the cell lysate and the mixture was boiled at 100 °C for 5 min. Proteins were separated by electrophoresis on 10% (for MAPKs) or 12% (for collagen) sodium dodecyl sulfate-polyacrylamide gel and electroblotted onto polyvinylidene fluoride membranes.” left out, “To normalize for protein loading, antibodies against β-actin and GAPDH were used, and phospho-ERK 1/2, phospho-JNK, and phospho-p38 phosphorylation levels were expressed relative to those of ERK, p38, and JNK, respectively.” left out

[3] = ABTS radical scavenging activity test; format: biochemical; settings: for Anti-oxidant Rank (ABTS radical scavenging activity rank) / IC50: Table S1; for Anti-oxidant Rank (ABTS radical scavenging activity rank): rank by IC50, 1 = most active; for IC50: tested 0.000001-1 mM, calculated by GraphPad Prism 5, unit inferred; for IC50 / ABTS radical scavenging activity: 5 min at room temperature, absorbance 734 nm; for ABTS antioxidant activity (in words): various concentrations between 0.000001 and 1 mM; for ABTS radical scavenging activity: 0.01 mM, n = 3
Protocol: The ABTS radical cation solution was prepared by mixing 1 mL of a 14 mM ABTS solution and 1 mL of 4.9 mM potassium persulfate. The mixture reacted in the dark at room temperature for 16 h. The ABTS solution was diluted with PBS (1:50, v/v), and 190 μL of it reacted with 10 μL of the sample solution in a 96-well plate at room temperature for 5 min. The absorbance at 734 nm was measured using a SpectraMax iD3 microplate reader (Molecular Devices, San Jose, CA, USA), and the ABTS radical scavenging activity rate was calculated using the following equation:ABTS radical scavenging activity (%) = 1 − (absorbance of sample/absorbance of water) × 100

[4] = DPPH radical scavenging activity test; format: biochemical; settings: various concentrations; 0.1 mM DPPH, 30 min in the dark at room temperature, absorbance 517 nm
Protocol: The DPPH method is based on a mechanism similar to the ABTS method. […] In a 96-well plate, 100 μL of the DPPH solution and 100 μL of the sample were treated and incubated at room temperature in the dark for 30 min. Absorbance at 517 nm was then measured using a SpectraMax iD3 microplate reader (Molecular Devices, San Jose, CA, USA). The solvents used for the samples were methanol for peptide samples and ethanol for phenolic acid samples.

[5] = system: collagen type I alpha 1 chain (Col1a1) mRNA; experiment: Collagen I (Col1a1) mRNA level in HaCaT cells (RT-PCR); format: cell-based, human; settings: peptide 500 μM, normalized to Gapdh, n = 3
Protocol: The peptide and control groups were pretreated with 500 and 0 μM of the peptide solution, respectively, for 2 h, followed by stimulation with 0.1 μg/mL of LPS for 24 h. Total cellular RNA was isolated using the RNeasy Mini Kit (Qiagen, Santa Clara, CA, USA). Total RNA was used to synthesize complementary DNA (cDNA) using the PrimeScript™ 1st strand cDNA synthesis kit (TaKaRa, Kusatsu, Japan). The sequences of oligonucleotide primers for amplifying inducible nitric oxide synthase (iNos), cyclooxygenase-2 (Cox-2), and collagen type I alpha 1 chain (Col1a1) synthesized from Bioneer (Daejeon, Republic of Korea) and glyceraldehyde-3-phosphate dehydrogenase (Gapdh) synthesized from Macrogen (Seoul, Republic of Korea) are listed in Table 1. […] The mRNA levels of iNos, Cox-2, and Col1a1 were normalized to that of Gapdh, which is a housekeeping gene. The mRNA levels were quantified using the 2^-ddCt method based on the Ct values.

[6] = system: collagen I (COL1A1) protein; experiment: Collagen I (COL1A1) protein level in HaCaT cells (Western blot); format: cell-based, human; settings: peptide 500 µM, 24 h, Western blot densitometry normalized to GAPDH, n = 3
Protocol: as §1

HaCaT cells = experiment: Cell viability (MTT assay) in HaCaT cells; format: cell-based, human; settings: 0.032-500 µM, 24 h
Protocol: Cell viability was assessed using an MTT assay. HaCaT cells (1.0 × 10^4 cells/mL) were seeded in a 96-well plate and cultured for 24 h. Thereafter, the cells were treated with the peptide solution (0–500 µM) for 24 h. […] The MTT solution was prepared by dissolving it in phosphate-buffered saline (PBS) at a concentration of 5 mg/mL. 10 μL of the prepared MTT solution was added to each well, and the plate was incubated for 4 h. After removing the culture medium, 200 μL of dimethyl sulfoxide (DMSO) was added to each well to solubilize any deposited formazan. The absorbance at 560 nm was measured using an Epoch microplate Spectrophotometer (BioTek, Winooski, VT, USA).

[7] = system: intracellular ROS in RAW 264.7 cells; experiment: LPS-induced intracellular ROS, DCFH-DA fluorescence, in RAW 264.7 cells; format: cell-based, murine; settings: peptides and carnosine 500 μM pretreated 2 h, then LPS 0.1 μg/mL 24 h, n = 3
Protocol: RAW 264.7 cells (7.5 × 10^4 cells/mL) were seeded on sterile cover slips placed in the wells of a 12-well plate and cultured for 24 h. The cells were pretreated with peptide solutions (500 μM) and carnosine (500 μM) for 2 h and stimulated with LPS (0.1 μg/mL) for 24 h. Subsequently, they were treated with a 10 μM DCFH-DA solution for 30 min and washed with PBS. The washed cells were fixed with a 4% paraformaldehyde solution for 5 min, and intracellular ROS fluorescence was observed using a DMi8 inverted microscope (Leica, Wetzlar, Germany).

Compound: C[C@@H]1C[C@H]2[C@@H]3CCC4=CC(=O)C=C[C@]4(C)[C@@]3(F)[C@@H](O)C[C@]2(C)[C@@]1(O)C(=O)CO [DEX, Dexamethasone, reference compound]
reduction of LPS-induced Cox-2 mRNA level [1]: ~91%
decrease of p-p38 level (phospho-p38): markedly reduced
decrease of p-ERK level (phospho-ERK 1/2): markedly reduced
reduction of LPS-induced iNos mRNA level [2]: approximately 80%
decrease of p-JNK level (phospho-JNK): markedly reduced

IC50 [3]: 2.49 µM
Compound: O=C(O)c1cc(O)c(O)c(O)c1 [Gallic acid, gallic acid, reference compound]
Anti-oxidant Rank (ABTS radical scavenging activity rank) [3]: 1
ABTS antioxidant activity (in words) [3]: highest antioxidant activity

IC50 [3]: 23.8 µM
Compound: O=C1O[C@H]([C@@H](O)CO)C(O)=C1O [L-ascorbic acid, reference compound]
ABTS radical scavenging activity [3]: 20%
Anti-oxidant Rank (ABTS radical scavenging activity rank) [3]: 7

Compound: COc1cc(C(=O)O)ccc1O [vanillic acid, reference compound]
DPPH radical scavenging activity (in words) [4]: weak antioxidant activity

Compound: N-(1-oxohexadecyl) glycyl-L-histidyl-L-lysine [PTP-1, reference compound]
increase of collagen I mRNA level compared with the negative control group [5]: 135%

Compound: QHGV [glutamine–histidine–glycine–valine]
increase of collagen I mRNA level compared with the negative control group [5]: 26%
reduction of LPS-induced Cox-2 mRNA level [1]: reduced
increase of collagen I protein level [6]: 147%
Anti-oxidant Rank (ABTS radical scavenging activity rank) [3]: 8
ABTS antioxidant activity (in words) [3]: did not exhibit high antioxidant activity
cytotoxicity (in words) (HaCaT cells): no cytotoxicity
reduction of LPS-induced iNos mRNA level [2]: reduced

IC50 [3]: 16.7 µM
Compound: caffeoyl-QHGV [Ca-QHGV]
reduction of LPS-induced Cox-2 mRNA level [1]: 8%
increase of collagen I protein level [6]: 316%
ABTS radical scavenging activity [3]: 33%
Anti-oxidant Rank (ABTS radical scavenging activity rank) [3]: 5
decrease of p-p38 level (phospho-p38): 5%
decrease of p-ERK level (phospho-ERK 1/2): 9%
reduction of LPS-induced iNos mRNA level [2]: 26%
decrease of p-JNK level (phospho-JNK): 10%

IC50 [3]: 17.8 µM
Compound: feruloyl-QHGV [Fe-QHGV]
reduction of LPS-induced Cox-2 mRNA level [1]: 11%
increase of collagen I protein level [6]: 457%
ABTS radical scavenging activity [3]: 31%
Anti-oxidant Rank (ABTS radical scavenging activity rank) [3]: 6
reduction of LPS-induced iNos mRNA level [2]: did not significantly affect
decrease of p-JNK level (phospho-JNK): 23%

Compound: galloyl-QHGV [Ga-QHGV]
increase of collagen I mRNA level compared with the negative control group [5]: 140%
reduction of LPS-induced Cox-2 mRNA level [1]: 22%
decrease of intracellular ROS levels compared to the LPS-treated group [7]: reduced LPS-induced ROS levels to the greatest extent
increase of collagen I protein level [6]: 354%
ABTS radical scavenging activity [3]: 74%
Anti-oxidant Rank (ABTS radical scavenging activity rank) [3]: 2
IC50 [3]: 4.58 µM
cytotoxicity (in words) (HaCaT cells): no cytotoxicity
reduction of LPS-induced iNos mRNA level [2]: 60%
decrease of p-JNK level (phospho-JNK): 18%

Compound: glycyl-L-histidyl-L-lysine-Cu (II) [GHK-Cu, reference compound]
reduction of LPS-induced Cox-2 mRNA level [1]: 24%
reduction of LPS-induced iNos mRNA level [2]: 45%

Compound: sinapoyl-QHGV [Si-QHGV]
reduction of LPS-induced Cox-2 mRNA level [1]: 15%
increase of collagen I protein level [6]: 363%
ABTS radical scavenging activity [3]: 27%
decrease of p-ERK level (phospho-ERK 1/2): 5%
reduction of LPS-induced iNos mRNA level [2]: did not significantly affect

IC50 [3]: 16.4 µM
Compound: vanilloyl-QHGV [Va-QHGV]
reduction of LPS-induced Cox-2 mRNA level [1]: 16%
increase of collagen I protein level [6]: 163%
ABTS radical scavenging activity [3]: 34%
Anti-oxidant Rank (ABTS radical scavenging activity rank) [3]: 4
DPPH radical scavenging activity (in words) [4]: did not exhibit antioxidant effects
decrease of p-ERK level (phospho-ERK 1/2): 24%
reduction of LPS-induced iNos mRNA level [2]: did not significantly affect

Compound: β-alanyl-L-histidine [carnosine, reference compound]
reduction of LPS-induced Cox-2 mRNA level [1]: no significant effect
reduction of LPS-induced iNos mRNA level [2]: no significant effect

IC50 [3]: 14.7 µM
Compound: γ-L-glutamyl-L-cysteinyl-glycine [Glutathione, reference compound]
Anti-oxidant Rank (ABTS radical scavenging activity rank) [3]: 3
